BigSolDB 2.1

CC(C)(C)NSc1nc2ccccc2s1
solubility (mole fraction)
Conditions | 273.2 K | 278.2 K | 283.2 K | 288.2 K | 293.2 K | 298.2 K | 303.2 K | 308.2 K | 313.2 K
in ethanol | 0.00951 | 0.0111 | 0.0133 | 0.0157 | 0.0198 | 0.0236 | 0.0278 | 0.0344 | 0.0419
in isopropanol | 0.00844 | 0.00938 | 0.0122 | 0.015 | 0.0176 | 0.0208 | 0.025 | 0.0298 | 0.0352
in methanol | 0.00591 | 0.00707 | 0.00834 | 0.00991 | 0.0123 | 0.0148 | 0.0178 | 0.0219 | 0.0266
in n-butanol | 0.0177 | 0.0202 | 0.0237 | 0.028 | – | 0.0375 | 0.0444 | 0.0524 | 0.061
in tert-butylamine | 0.0952 | 0.107 | 0.115 | 0.124 | 0.135 | 0.149 | 0.165 | 0.176 | 0.198
in toluene | 0.0273 | 0.0355 | 0.0422 | 0.0518 | 0.0605 | 0.0691 | 0.084 | 0.102 | 0.122
